Experimental data published in PMC9714295, “DadY (PA5303) is required for fitness of Pseudomonas aeruginosa when growth is dependent on alanine catabolism” (Microbial Cell, 2022).

Experiments:
DadA = target: T1, DadA (Pseudomonas aeruginosa, UniProt Q9HTQ0); test: semicarbazone formation, A248; format: biochemical; settings: 7.5 mM D-alanine; 10 mM semicarbazide, 30 uM FAD, 100 uM ubiquinone-1; pH 8.7, 25 C; no DadY
T1 construct: gene dadA1
T1 sequence (Q9HTQ0 1-432): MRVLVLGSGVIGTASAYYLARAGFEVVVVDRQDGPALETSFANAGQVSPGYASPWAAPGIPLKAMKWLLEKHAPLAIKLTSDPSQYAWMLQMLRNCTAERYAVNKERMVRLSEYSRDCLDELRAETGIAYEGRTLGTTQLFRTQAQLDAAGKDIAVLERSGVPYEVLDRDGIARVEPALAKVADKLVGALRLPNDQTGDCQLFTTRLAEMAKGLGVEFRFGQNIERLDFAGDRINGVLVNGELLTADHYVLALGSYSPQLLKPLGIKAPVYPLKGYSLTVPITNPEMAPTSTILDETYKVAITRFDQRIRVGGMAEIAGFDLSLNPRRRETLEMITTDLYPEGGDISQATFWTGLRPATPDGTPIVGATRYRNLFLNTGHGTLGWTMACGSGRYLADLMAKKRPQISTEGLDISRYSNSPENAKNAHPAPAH

DadY (PA5303) = target: T2, DadY (PA5303) (Pseudomonas aeruginosa, UniProt Q9HTQ1); test: semicarbazone competition assay, A248, imine generated by DadA; format: biochemical; settings: imine made in situ from 7.5 mM D-alanine by 0.5 uM DadA; 5 uM DadY; 10 mM semicarbazide, FAD, ubiquinone-1; pH 8.7, 25 C
T2 sequence (Q9HTQ1 1-117): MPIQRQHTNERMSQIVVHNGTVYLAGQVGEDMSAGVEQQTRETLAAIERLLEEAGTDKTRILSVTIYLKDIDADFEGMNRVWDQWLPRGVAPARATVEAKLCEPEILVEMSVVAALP

Structure (SMILES) | semicarbazone formation, A248 (DadA) | semicarbazone competition assay, A248, imine generated by DadA (DadY (PA5303))
C[C@@H](N)C(=O)O [D-alanine] | When DadA used D-alanine as a substrate and semicarbazide was present, a semicarbazone compound was formed | –
CC(=N)C(=O)O [imino-alanine] | – | DadY could act on the imine derived from D-alanine that was generated by DadA
